# “And” between values parts separate entries of the source, which are not always exact repeats. Equal entries are not always repeated.
# Legend:
# [1] = test system: ligand-detection complex of Compound 15 and P-Tyr-100 antiphosphotyrosine monoclonal antibody; test: Displacement of phosphotyramide-dye ligand analog by phosphotyrosine (Example 21); type: binding, mouse; conditions: 10 μM
# Procedure: Solutions containing 100 nM ligand analog Compound 15 or ligand-detection complex (100 nM (B573-85-HCK)+100 nM P-Tyr-100 antiphosphotyrosine monoclonal antibody (Cell Signaling Technology, Beverly, Mass.)) were prepared in 50 mM Tris-HCl pH 7.5, 10 mM MgCl2, 0.01% Brij-35, 100 μM ATP, 2 mM DTT, 1 mM EGTA. Fluorescence emission spectra of these samples were recorded on a Hitach F-4500 spectrofluorometer using an excitation wavelength of 470 nm. O-phosho-L-tyrosine (Sigma Chemical Co., St. Louis, Mo.) or phosphotyrosine peptide (phospho-pp60 c-src (521-533); TSTEPQY*QPGENL, Bachem California, Inc. Torrance, Calif.) at a concentration of 10 μM were added to samples of the detection complex and the resulting change in fluorescence was measured. See, FIG. 13.
# [2] = test system: P-Tyr-100 mouse monoclonal anti-phosphotyrosine antibody; test: Efficacy of secondary antibody labels as FRET acceptors (Example 27); type: binding
# Procedure: Solutions containing (A) 100 nM phosphotyramide ligand analog, (B) 100 nM phosphotyramide ligand analog complexed with 100 nM P-Tyr-100 mouse monoclonal anti-phosphotyrosine antibody and (C) 100 nM phosphotyramide ligand analog complexed with 100 nM P-Tyr-100 anti-phosphotyrosine antibody and 600 nM Fab fragments of goat anti-mouse IgG were prepared in 50 mM Tris-HC1, pH 7.5. Corresponding sets for solutions were prepared for Fab fragments labeled with three different dyes and an unlabeled control. Fluorescence intensities at 510 nm (excitation at 450 nm) were measured on a Hitachi F-4500 spectrofluorometer and were expressed as percentages of the intensity of the free phosphotyramide ligand sample (Table 5). […] Addition of a labeled secondary antibody produced a further decrease in intensity only in the case of the Alexa Fluor 555 labeling dye, which has spectral characteristics that are consistent with efficient fluorescence resonance energy transfer from the BODIPY FL phosphotyramide ligand (Compound 16).
# [3] = test system: p-Tyr-100 antibody; test: Screening of phosphotyrosine ligand-binding antibodies with Compound 16 (Example 20); set-up: species or system mouse; conditions: compared with p-Tyr-69, p-Tyr-20 and 4G10 antibodies; 50 nM Compound 16
# Procedure: A 4 mM stock of Compound 16 was made in 16% (v/v) DMSO. Three different antibodies were diluted to 1 μM in 50 mM MOPS, pH 7.2:1) p-Tyr-100 antibody (Cell Signaling Technology, catalog # 9411); 2) p-Tyr-69 antibody (BD Transduction Labs, catalog # 610430); 3) p-Tyr-20 antibody (BD Transduction Labs, catalog # 610000). A fourth antibody, the 4G10 antibody (Upstate Biotechnology, catalog # 05-321), was diluted to 400 nM in MOPS buffer. The antibodies were serially diluted in a microplate in 25 μl 50 mM MOPS, pH 7.2, buffer. 25 μl 100 nM Compound 16 in MOPS buffer was added to all wells. The fluorescence intensity was measured on an EnVision microplate reader (Perkin Elmer), PMT 1 gain 155, PMT 2 gain 187, excitation light 53%, 100 flashes at 9 mM height.
# [4] = test system: Compound 15+P-Tyr-100 complex; test: Selectivity of displacement of Compound 15 by peptides or proteins (Example 16); type: binding, mouse; conditions: peptides or proteins serially diluted from 80 μM
# Procedure: A 5 mM solution of Compound 15 was prepared in water. In kinase buffer (50 mM Tris, pH 7.5, 10 mM MgCl2, 1 mM EGTA, 0.01% Brij 35, 2 mM DTT, 100 μM ATP) 80 μM solutions of six different peptides or proteins were made: 1) phospho-pp60 c-src peptide (521-533) (TSTEPQY*QPGENL) (Bachem, catalog # H-3258); 2) non-phospho-pp60 c-src peptide (521-533) (TSTEPQYQPGENL) (Bachem, catalog # H-3256); 3) phospho-DSIP peptide (WAGGDAS*GE) (SynPep, catalog # 3920); 4) phospho-RRA(pT)VA peptide (RRAT*VA) (Sigma, catalog V248A); 5) beta-casein (Sigma, catalog # C6905); 6) bovine serum albumin (Sigma, catalog # A7284). These peptides or proteins were serially diluted 2-fold in 20 μl in a 0.025% Mowiol-blocked 384-well black Packard OptiPlate. 20 μl of a 2× mix of 50 nM of Compound 15+100 nM P-Tyr-100 (Cell Signaling Technology, catalog # 9411) complex in kinase buffer was added to the wells. The fluorescence intensity was measured on an EnVision microplate reader (Perkin Elmer), PMT 1 gain 155, PMT 2 gain 183, excitation light 60%, 100 flashes at 9 mM height.
compound,measurement,setting,value
"N[C@@H](Cc1ccc(OP(=O)(O)O)cc1)C(=O)O [Phosphotyrosine, O-phosho-L-tyrosine]",displacement of phosphotyramide-dye ligand analog from antibody binding sites,[1],Minimal Displacement
BODIPY FL phosphotyramide [Compound 16],"fluorescence intensity at 510 nm, Sample C","[2]; 100 nM Compound 16 + 100 nM P-Tyr-100 + 600 nM Fab labeled Alexa Fluor 555 (DOS 3.8), percentages of Sample A",36 percentages
same,"fluorescence intensity at 510 nm, Sample C","[2]; 100 nM Compound 16 + 100 nM P-Tyr-100 + 600 nM Fab labeled Alexa Fluor 594 (DOS 2.5), percentages of Sample A",48 percentages
same,"fluorescence intensity at 510 nm, Sample C","[2]; 100 nM Compound 16 + 100 nM P-Tyr-100 + 600 nM Fab labeled Alexa Fluor 647 (DOS 2.8), percentages of Sample A",47 percentages
same,"fluorescence intensity at 510 nm, Sample C","[2]; 100 nM Compound 16 + 100 nM P-Tyr-100 + 600 nM Fab, Unlabeled, percentages of Sample A",51 percentages
same,"fluorescence intensity at 510 nm, Sample B","[2]; 100 nM Compound 16 + 100 nM P-Tyr-100, percentages of Sample A, excitation 450 nm",49 percentages and 51 percentages and 53 percentages
same,"fluorescence intensity at 510 nm, Sample A","[2]; 100 nM Compound 16 alone, reference set to 100, excitation 450 nm",100 percentages
same,decrease of fluorescence intensity on binding to the P-Tyr-100 antibody,[2]; 100 nM ligand analog + 100 nM P-Tyr-100,approximately 50%
same,affinity of antibody for the ligand analog,[3],highest affinity
TSTEPQY*QPGENL [phospho-pp60 c-src peptide],displacement of the ligand analog (Compound 15),[4],significantly displaces

# Reference: patent US7282339B2, “Competitive immunoassay” (Invitrogen Corporation, priority 2003, dated 2007)
